In the supplement of paper PMC5662764:
± gives the standard deviation of the averaged measurements.

Assays:
Test in all cases: normalised growth rate inhibition (GR value) relative to DMSO control (GR (1 = untreated growth, 0 = cytostasis, <0 = cytotoxic)); higher = less growth inhibition
Conditions in all cases: 72 h
SKBR3 = test system: SKBR3
Protocol: (§1)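 Breast cancer cell lines (BT-20, Hs 578T, MCF 10A, MCF7, MDA-MB-231, SK-BR-3) were plated in 384-well plates and treated 24 h later with drugs at six concentrations (0.04-10 µM). Viable cells were counted by Hoechst/dead-cell-stain imaging at 0 and 72 h. Counts were normalised to DMSO controls on the same plate to give the relative cell count and the growth-rate inhibition (GR) value; technical plate triplicates were averaged for each biological replicate.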

MDAMB231 = test system: MDAMB231
Protocol: as §1

MCF10A = test system: MCF10A
Protocol: as §1

BT20 = test system: BT20
Protocol: as §1

HS578T = test system: HS578T
Protocol: as §1

MCF7 = test system: MCF7
Protocol: as §1

Compound	normalised growth rate inhibition (SKBR3; 0.04 µM)	normalised growth rate inhibition (SKBR3; 0.12 µM)	normalised growth rate inhibition (SKBR3; 0.37 µM)	normalised growth rate inhibition (SKBR3; 1.11 µM)	normalised growth rate inhibition (SKBR3; 3.33 µM)	normalised growth rate inhibition (SKBR3; 10 µM)	normalised growth rate inhibition (MDAMB231; 0.04 µM)	normalised growth rate inhibition (MDAMB231; 0.12 µM)	normalised growth rate inhibition (MDAMB231; 0.37 µM)	normalised growth rate inhibition (MDAMB231; 1.11 µM)	normalised growth rate inhibition (MDAMB231; 3.33 µM)	normalised growth rate inhibition (MDAMB231; 10 µM)	normalised growth rate inhibition (MCF10A; 0.04 µM)	normalised growth rate inhibition (MCF10A; 0.12 µM)	normalised growth rate inhibition (MCF10A; 0.37 µM)	normalised growth rate inhibition (MCF10A; 1.11 µM)	normalised growth rate inhibition (MCF10A; 3.33 µM)	normalised growth rate inhibition (MCF10A; 10 µM)	normalised growth rate inhibition (BT20; 0.04 µM)	normalised growth rate inhibition (BT20; 0.12 µM)	normalised growth rate inhibition (BT20; 0.37 µM)	normalised growth rate inhibition (BT20; 1.11 µM)	normalised growth rate inhibition (BT20; 3.33 µM)	normalised growth rate inhibition (BT20; 10 µM)	normalised growth rate inhibition (HS578T; 0.04 µM)	normalised growth rate inhibition (HS578T; 0.12 µM)	normalised growth rate inhibition (HS578T; 0.37 µM)	normalised growth rate inhibition (HS578T; 1.11 µM)	normalised growth rate inhibition (HS578T; 3.33 µM)	normalised growth rate inhibition (HS578T; 10 µM)	normalised growth rate inhibition (MCF7; 0.04 µM)	normalised growth rate inhibition (MCF7; 0.12 µM)	normalised growth rate inhibition (MCF7; 0.37 µM)	normalised growth rate inhibition (MCF7; 1.11 µM)	normalised growth rate inhibition (MCF7; 3.33 µM)	normalised growth rate inhibition (MCF7; 10 µM)
CN(c1ccccc1CNc1nc(Nc2ccc3c(c2)CC(=O)N3)ncc1C(F)(F)F)S(C)(=O)=O	1.04 ± 0.024	0.653 ± 0.081	0.306 ± 0.017	0.0323 ± 0.071	-0.0178 ± 0.071	-0.141 ± 0.18	0.913 ± 0.058	0.78 ± 0.082	0.49 ± 0.2	0.241 ± 0.13	0.11 ± 0.13	-0.197 ± 0.22	0.744 ± 0.029	0.501 ± 0.056	0.233 ± 0.087	0.106 ± 0.019	0.0578 ± 0.032	-0.154 ± 0.16	0.902 ± 0.043	0.763 ± 0.035	0.414 ± 0.12	0.121 ± 0.12	0.0389 ± 0.12	-0.19 ± 0.21	0.761 ± 0.021	0.694 ± 0.042	0.537 ± 0.063	0.27 ± 0.068	0.181 ± 0.076	-0.0957 ± 0.088	0.742 ± 0.065	0.471 ± 0.1	0.184 ± 0.078	0.0628 ± 0.026	-0.0235 ± 0.037	-0.28 ± 0.03
CCCS(=O)(=O)Nc1ccc(F)c(C(=O)c2c[nH]c3ncc(-c4ccc(Cl)cc4)cc23)c1F [vemurafenib]	1.05 ± 0.069	1.03 ± 0.044	1.03 ± 0.04	1.01 ± 0.042	0.951 ± 0.046	0.805 ± 0.032	0.975 ± 0.042	0.965 ± 0.03	0.964 ± 0.025	0.897 ± 0.061	0.827 ± 0.064	0.422 ± 0.042	0.9898 ± 0.0042	0.9881 ± 0.0069	0.9871 ± 0.0051	0.955 ± 0.045	0.798 ± 0.14	0.462 ± 0.096	0.971 ± 0.051	0.968 ± 0.052	0.964 ± 0.035	0.949 ± 0.057	0.87 ± 0.031	0.582 ± 0.032	1.04 ± 0.014	1.03 ± 0.011	1.03 ± 0.038	1.01 ± 0.051	0.89 ± 0.075	0.548 ± 0.033	0.978 ± 0.017	1.02 ± 0.024	1.03 ± 0.015	1.01 ± 0.046	0.998 ± 0.022	0.858 ± 0.086
